What is called IC50 is the midpoint of a concentration-inhibition curve. Lower therefore signals greater potency in that assay.

In article PMC2738925 (Transplantation, 2009) one finds IC50 data, which are given here for 1 substance.

The target of this test is T1, mouse CXCR3 (Mus musculus, UniProt O88410).
T1 sequence (O88410 1-367): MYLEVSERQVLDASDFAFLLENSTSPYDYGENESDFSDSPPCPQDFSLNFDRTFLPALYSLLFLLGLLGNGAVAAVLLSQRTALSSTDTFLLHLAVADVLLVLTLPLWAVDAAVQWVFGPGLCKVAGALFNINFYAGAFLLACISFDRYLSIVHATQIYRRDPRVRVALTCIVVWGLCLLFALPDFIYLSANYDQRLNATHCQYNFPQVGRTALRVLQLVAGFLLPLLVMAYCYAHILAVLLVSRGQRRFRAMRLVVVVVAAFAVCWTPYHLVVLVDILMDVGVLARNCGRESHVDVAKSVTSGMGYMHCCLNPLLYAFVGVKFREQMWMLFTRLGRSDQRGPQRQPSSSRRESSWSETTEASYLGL
Briefly: […]-CXCL10 radioligand displacement on HEK […] cells transfected with mouse CXCR3. Format: cell-based. Background: In a radioligand displacement assay an active substance lowers the binding of a labelled ligand.

AMG1237845 returned an IC50 of 53 ± 7 nM.
